The subject of one test is MDA-MB-468 cells. Description: Anti-proliferative effect on MDA-MB-468 cells, IC50 (MTT). It is filed as cell-based. Conditions: Homo sapiens, MDA-MB-468, 72 h.
Another test has as its system HepG2 cells. Description: HepG2 cell viability assay (CCK-8). The settings on record: Homo sapiens, HepG2, 72 h. It is filed as cell-based, human. The procedure:
The ability to inhibit the proliferation of HepG2 cells, which are human hepatocellular carcinoma cells, was measured through the in vitro cell viability assay. Cells were cultured at 37° C. in a humidified condition in the presence of 5% CO2 using a culture medium of MEM (Welgene)+10% FBS (Gibco)+1% penicillin/streptomycin (Gibco). […] Cell viability was measured by CCK-8 method using tetrazolium salt, and the ability of the compounds according to the present invention to inhibit cancer cell proliferation was calculated.

Method for MDA-MB-468 cells: The compounds of the present invention were tested at different concentrations (from 1000 nM to 1 nM) to assess their ability for inhibiting the proliferation of MDAMB-468 cells. Cells were cultivated in RPMI 1640 (Welgene)+10% FBS (Gibco)+1% penicillin/streptomycin (Gibco) and cultured at 37° C. in a humidified chamber in the presence of 5% C02.
MDA-MB-468 cells cultured in 96-well cell culture plates were treated with the compounds of the present invention and incubated for 72 hours.

Take `CCc1cnc(NC(=O)[C@@H](C)c2cccc(-c3cnc(NC(=O)/C=C/CN4CCOCC4)c(C#N)c3)c2)s1` [Example 135, (S,E)-N-(3-cyano-5-(3-(1-((5-ethylthiazol-2-yl)amino)-1-oxopropan-2-yl)phenyl)pyridin-2-yl)-4-morpholinobut-2-enamide]: the IC50 came out at 48 nM with MDA-MB-468 cells and 10 nM in the test with HepG2 cells.

`COC[C@@H]1CCCN1C/C=C/C(=O)Nc1cnc(-c2cccc([C@H](C)C(=O)Nc3ncc(C(F)(F)F)s3)c2)cn1` [Example 118, (E)-4-((S)-2-(methoxymethyl)pyrrolidin-1-yl)-N-(5-(3-((S)-1-oxo-1-((5-(trifluoromethyl)thiazol-2-yl)amino)propan-2-yl)phenyl)pyrazin-2-yl)but-2-enamide] yielded a half-maximal inhibitory concentration (IC50) with MDA-MB-468 cells of 47 nM. This lies in the double-digit nanomolar range.

For the compound `C[C@H](C(=O)Nc1ncc(C(F)(F)F)s1)c1cccc(-c2cnc3c(c2)CCN3C(=O)/C=C/CN(C)C)c1` [Example 110, (S,E)-2-(3-(1-(4-(dimethylamino)but-2-enoyl)-2,3-dihydro-1H-pyrrolo[2,3-b]pyridin-5-yl)phenyl)-N-(5-(trifluoromethyl)thiazol-2-yl)propanamide], the IC50 was 74 nM in the test with MDA-MB-468 cells and 17.4 nM in the test with HepG2 cells.

On to `C[C@H](C(=O)Nc1ncc(C(F)(F)F)s1)c1cccc(-c2cnc(NC(=O)/C=C/CN3CC4CC3CO4)cn2)c1` (stereo partly drawn) [Example 96, (E)-4-(2-oxa-5-azabicyclo[2.2.1]heptan-5-yl)-N-(5-(3-((S)-1-oxo-1-((5-(trifluoromethyl)thiazol-2-yl)amino)propan-2-yl)phenyl)pyrazin-2-yl)but-2-enamide], for which the figures for the IC50 with MDA-MB-468 cells and in the test with HepG2 cells were 68 nM and 19 nM, respectively.

Regarding `C[C@H](C(=O)Nc1ncc(C(F)(F)F)s1)c1cccc(-c2cnc(NC(=O)/C=C/CN3CCC3)cn2)c1` [Example 103, (S,E)-4-(azetidin-1-yl)-N-(5-(3-(1-oxo-1-((5-(trifluoromethyl)thiazol-2-yl)amino)propan-2-yl)phenyl)pyrazin-2-yl)but-2-enamide], the IC50 with MDA-MB-468 cells was found to be 68 nM; in the test with HepG2 cells, 14 nM.

For `CCN(CC)C/C=C/C(=O)Nc1cnc(-c2cccc([C@H](C)C(=O)Nc3ncc(C(F)(F)F)s3)c2)cn1` [Example 114, (S,E)-4-(diethylamino)-N-(5-(3-(1-oxo-1-((5-(trifluoromethyl)thiazol-2-yl)amino)propan-2-yl)phenyl)pyrazin-2-yl)but-2-enamide], the half-maximal inhibitory concentration (IC50) was found to be 56 nM in the test on MDA-MB-468 cells and 12 nM in the test on HepG2 cells.

Take `CCc1cnc(NC(=O)[C@@H](C)c2cccc(-c3cnc(N(C)C(=O)/C=C/CN(C)C)c(C#N)c3)c2)s1` [Example 132, (S,E)-N-(3-cyano-5-(3-(1-((5-ethylthiazol-2-yl)amino)-1-oxopropan-2-yl)phenyl)pyridin-2-yl)-4-(dimethylamino)-N-methylbut-2-enamide]: the IC50 is 32 nM in the test on MDA-MB-468 cells and 9.5 nM with HepG2 cells.

Turning to `CC(C(=O)Nc1ncc(C(F)(F)F)s1)c1cncc(-c2cnc(NC(=O)/C=C/CN3CCOCC3)cn2)c1` (stereo not drawn) [Example 74, (E)-4-morpholino-N-(5-(5-(1-oxo-1-((5-(trifluoromethyl)thiazol-2-yl)amino)propan-2-yl)pyridin-3-yl)pyrazin-2-yl)but-2-enamide], the IC50 with MDA-MB-468 cells came to 65 nM.

For `C[C@H](C(=O)Nc1ncc(C(F)(F)F)s1)c1cccc(-c2cnc(NC(=O)/C=C/CN3CC[C@@H](F)C3)cn2)c1` [Example 115, (E)-4-((R)-3-fluoropyrrolidin-1-yl)-N-(5-(3-((S)-1-oxo-1-((5-(trifluoromethyl)thiazol-2-yl)amino)propan-2-yl)phenyl)pyrazin-2-yl)but-2-enamide], the IC50 was 75 nM in the test on MDA-MB-468 cells and 12 nM in the test with HepG2 cells.

`COc1nc(-c2cccc([C@H](C)C(=O)Nc3ncc(C(F)(F)F)s3)c2)cnc1NC(=O)/C=C/CN(C)C` [Example 109, (S,E)-4-(dimethylamino)-N-(3-methoxy-5-(3-(1-oxo-1-((5-(trifluoromethyl)thiazol-2-yl)amino)propan-2-yl)phenyl)pyrazin-2-yl)but-2-enamide]: the IC50 with MDA-MB-468 cells stood at 31 nM; with HepG2 cells it was 2.6 nM.

Turning to `CCc1cnc(NC(=O)[C@@H](C)c2cccc(-c3cnc4c(c3)CCN4C(=O)/C=C/CN(C)C)c2)s1` [Example 122, (S,E)-2-(3-(1-(4-(dimethylamino)but-2-enoyl)-2,3-dihydro-1H-pyrrolo[2,3-b]pyridin-5-yl)phenyl)-N-(5-ethylthiazol-2-yl)propanamide], the IC50 worked out at 34 nM in the test on MDA-MB-468 cells and 38 nM in the test on HepG2 cells.

As for `CCc1cnc(NC(=O)[C@@H](C)c2cccc(-c3cnc(NC(=O)/C=C/CN4CC5CC4CO5)c(C#N)c3)c2)s1` (stereo partly drawn) [Example 123, (E)-4-(2-oxa-5-azabicyclo[2.2.1]heptan-5-yl)-N-(3-cyano-5-(3-((S)-1-((5-ethylthiazol-2-yl)amino)-1-oxopropan-2-yl)phenyl)pyridin-2-yl)but-2-enamide], the figures for the IC50 in the test with MDA-MB-468 cells and in the test on HepG2 cells were 24 nM and 11 nM, respectively.

Turning to `CCc1cnc(NC(=O)C(C)c2cncc(-c3cnc(NC(=O)/C=C/CN(C)C)c(C#N)c3)c2)s1` (stereo not drawn) [Example 137, (E)-N-(5-cyano-5′-(1-((5-ethylthiazol-2-yl)amino)-1-oxopropan-2-yl)-[3,3′-bipyridin]-6-yl)-4-(dimethylamino)but-2-enamide], the IC50 in the test with MDA-MB-468 cells is 47 nM; with HepG2 cells, 18 nM.

Turning to `Cc1cc(-c2cccc([C@H](C)C(=O)Nc3ncc(C(F)(F)F)s3)c2)cnc1NC(=O)/C=C/CN(C)C` [Example 112, (S,E)-4-(dimethylamino)-N-(3-methyl-5-(3-(1-oxo-1-((5-(trifluoromethyl)thiazol-2-yl)amino)propan-2-yl)phenyl)pyridin-2-yl)but-2-enamide], the IC50 in the test with MDA-MB-468 cells worked out at 59 nM; in the test with HepG2 cells, 8.7 nM.

With `C=CC(=O)Nc1ncc(-c2cccc([C@H](C)C(=O)Nc3ncc(C(F)(F)F)s3)c2)cc1C#N` [Example 124, (S)-N-(3-cyano-5-(3-(1-oxo-1-((5-(trifluoromethyl)thiazol-2-yl)amino)propan-2-yl)phenyl)pyridin-2-yl)acrylamide], half-maximal inhibition in the test with MDA-MB-468 cells (IC50) was put at 40 nM.

With `C[C@H](C(=O)Nc1ncc(C(F)(F)F)s1)c1cccc(-c2cnc(NC(=O)/C=C/CN(C)C)cn2)c1` [Example 81, (S,E)-4-(dimethylamino)-N-(5-(3-(1-oxo-1-((5-(trifluoromethyl)thiazol-2-yl)amino)propan-2-yl)phenyl)pyrazin-2-yl)but-2-enamide], the IC50 in the test on MDA-MB-468 cells stood at 39 nM; in the test with HepG2 cells, 11 nM.

`C=CC(=O)Nc1ccc(-c2cncc(C(C)C(=O)Nc3ncc(C(F)(F)F)s3)c2)cn1` (stereo not drawn) [Example 82, N-(5′-(1-oxo-1-((5-(trifluoromethyl)thiazol-2-yl)amino)propan-2-yl)-[3,3′-bipyridin]-6-yl)acrylamide]: the results for the IC50 in the test on MDA-MB-468 cells and in the test with HepG2 cells were 32 nM and 4 nM, respectively.

With `C[C@H](C(=O)Nc1ncc(C(F)(F)F)s1)c1cccc(-c2cnc(NC(=O)/C=C/CN(C)C)c(Cl)c2)c1` [Example 113, (S,E)-N-(3-chloro-5-(3-(1-oxo-1-((5-(trifluoromethyl)thiazol-2-yl)amino)propan-2-yl)phenyl)pyridin-2-yl)-4-(dimethylamino)but-2-enamide], the IC50 came out at 35 nM with MDA-MB-468 cells and 4.2 nM in the test on HepG2 cells.

For `C=CC(=O)Nc1ncc(-c2cncc(C(C)C(=O)Nc3ncc(C(F)(F)F)s3)c2)cc1C#N` (stereo not drawn) [Example 88, N-(5-cyano-5′-(1-oxo-1-((5-(trifluoromethyl)thiazol-2-yl)amino)propan-2-yl)-[3,3′-bipyridin]-6-yl)acrylamide], the IC50 in the test on MDA-MB-468 cells came out at 54 nM; in the test on HepG2 cells it was 9 nM.

Turning to `C[C@H](C(=O)Nc1ncc(Cl)s1)c1cccc(-c2cnc(NC(=O)/C=C/CN(C)C)cn2)c1` [Example 93, (S,E)-N-(5-(3-(1-((5-chlorothiazol-2-yl)amino)-1-oxopropan-2-yl)phenyl)pyrazin-2-yl)-4-(dimethylamino)but-2-enamide], the IC50 came out at 38 nM with MDA-MB-468 cells and 21 nM in the test on HepG2 cells.

`C[C@H](C(=O)Nc1ncc(C(F)(F)F)s1)c1cccc(-c2cnc(NC(=O)/C=C/CN3CCCCC3)cn2)c1` [Example 120, (S,E)-N-(5-(3-(1-oxo-1-((5-(trifluoromethyl)thiazol-2-yl)amino)propan-2-yl)phenyl)pyrazin-2-yl)-4-(piperidin-1-yl)but-2-enamide] came in with an IC50 in the test on MDA-MB-468 cells of 51 nM.

Turning to `C[C@H](C(=O)Nc1ncc(C(F)(F)F)s1)c1cccc(-c2cnc(NC(=O)/C=C/CN3CCCC3)cn2)c1` [Example 102, (S,E)-N-(5-(3-(1-oxo-1-((5-(trifluoromethyl)thiazol-2-yl)amino)propan-2-yl)phenyl)pyrazin-2-yl)-4-(pyrrolidin-1-yl)but-2-enamide], the figures for the IC50 in the test on MDA-MB-468 cells and with HepG2 cells were 57 nM and 13 nM, respectively.

Turning to `C[C@H](C(=O)Nc1ncc(C2CCC2)s1)c1cccc(-c2cnc(NC(=O)/C=C/CN(C)C)cn2)c1` [Example 104, (S,E)-N-(5-(3-(1-((5-cyclobutylthiazol-2-yl)amino)-1-oxopropan-2-yl)phenyl)pyrazin-2-yl)-4-(dimethylamino)but-2-enamide], the IC50 was 44 nM with MDA-MB-468 cells and 8 nM with HepG2 cells.

For `C[C@H](C(=O)Nc1ncc(C(F)(F)F)s1)c1cccc(-c2cnc(NC(=O)/C=C/CN3CCOCC3)cn2)c1` [Example 92, (S,E)-4-morpholino-N-(5-(3-(1-oxo-1-((5-(trifluoromethyl)thiazol-2-yl)amino)propan-2-yl)phenyl)pyrazin-2-yl)but-2-enamide], the IC50 in the test with MDA-MB-468 cells was 52 nM; with HepG2 cells it was 74 nM.

As to `CC(C(=O)Nc1ncc(C(F)(F)F)s1)c1cncc(-c2ccc(NC(=O)/C=C/CN(C)C)nc2)c1` (stereo not drawn) [Example 107, (E)-4-(dimethylamino)-N-(5′-(1-oxo-1-((5-(trifluoromethyl)thiazol-2-yl)amino)propan-2-yl)-[3,3′-bipyridin]-6-yl)but-2-enamide], the IC50 with HepG2 cells is 3.1 nM.

The term IC50 denotes the concentration that inhibits the measured activity by half. Low values mean higher potency, high ones lower potency.
